Measured values: patent US20100160369A1, “S1P1 Agonists and Methods of Making And Using” (EXELIXIS, INC., priority 2008, published 2010)

Assays:
[1] = target: T1, S1P1 (Homo sapiens, UniProt P21453); assay: Tango β-arrestin Recruitment Assay in HEK293 cells (Assay 2a); format: cell-based; design: linker with TEV protease (N1a) cleavage site (C); host or cells: HEK293, transiently transfected; details: Tango β-arrestin Recruitment Assay, read-out: Assay 2a EC50
Outline: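 HEK293 cells transiently expressing S1P1 (TEV-cleavable tTA fusion) with β-arrestin2–TEV; compounds up to 10 μM, 10-point 3-fold, 1% DMSO, 30 min then 16–18 h at 37 °C. Luciferase luminescence normalised to 5 μM S1P as 100% and DMSO as background; EC50 from percent-activity curves.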
Target sequence in this assay (P21453 whole entry, the tested form may be a part): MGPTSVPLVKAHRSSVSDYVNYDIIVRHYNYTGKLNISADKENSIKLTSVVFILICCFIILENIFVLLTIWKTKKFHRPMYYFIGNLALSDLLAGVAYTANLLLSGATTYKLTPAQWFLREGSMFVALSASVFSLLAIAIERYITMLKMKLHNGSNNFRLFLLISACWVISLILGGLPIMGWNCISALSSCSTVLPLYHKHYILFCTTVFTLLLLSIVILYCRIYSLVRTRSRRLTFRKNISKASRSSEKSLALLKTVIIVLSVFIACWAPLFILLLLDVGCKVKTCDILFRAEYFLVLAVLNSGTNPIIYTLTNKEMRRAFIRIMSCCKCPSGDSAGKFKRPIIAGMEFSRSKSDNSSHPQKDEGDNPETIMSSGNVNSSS
Target sequence in this assay (P32121 whole entry partner, the tested form may be a part): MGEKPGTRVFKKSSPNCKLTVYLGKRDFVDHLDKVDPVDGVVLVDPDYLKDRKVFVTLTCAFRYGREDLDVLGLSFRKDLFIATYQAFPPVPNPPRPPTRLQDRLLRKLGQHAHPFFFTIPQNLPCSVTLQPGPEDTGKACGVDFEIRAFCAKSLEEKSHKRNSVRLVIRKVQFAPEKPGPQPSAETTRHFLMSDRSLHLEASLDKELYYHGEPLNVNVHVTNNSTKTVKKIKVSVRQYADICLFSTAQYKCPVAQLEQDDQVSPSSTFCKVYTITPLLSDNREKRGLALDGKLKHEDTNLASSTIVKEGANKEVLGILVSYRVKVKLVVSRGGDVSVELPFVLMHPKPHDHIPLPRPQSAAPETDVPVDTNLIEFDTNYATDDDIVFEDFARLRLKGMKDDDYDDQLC

[2] = target: T1, S1P1; assay: CNG cAMP Assay (Assay 1); format: cell-based; design: host or cells: HEK293 cells expressing the CNG channel; details: read-out: Assay 1 EC50
Outline: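 HEK293 cells expressing CNG channel and S1P1, membrane-potential dye loaded; compounds (top 10 μM, 10-point 3-fold, 1.8% DMSO) added with 25 μM Ro 20-1724, 500 nM NECA and 10 nM S1P for 90 min. T90/T0 fluorescence (Ex 350/Em 590 nm) normalised to NECA-alone vs DMSO; EC50 fitted.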
Target sequence in this assay (P21453 whole entry, the tested form may be a part): as the sequence (P21453 whole entry, the tested form may be a part) above

[3] = target: T2, hS1P1R (hEdg1) (Homo sapiens, UniProt P21453); assay: hS1P1R GTPγS Binding Assay (Assay 3a); format: biochemical
T2 construct: purchased Lonza
Procedure: The hS1P1R GTPγS binding assay was carried out at room temperature in 96 well non-binding surface assay plates. The reaction in each well contained 4 μg hS1P1R (hEdg1) membrane protein (Lonza), 30 μM GDP, 0.1 nM [^35S]GTPγS, 0.25% fatty acid free BSA, and serially diluted hS1P1R agonist compound in 200 μL assay buffer (25 mM Tris-HCl PH 7.9, 100 mM NaCl, 3 mM MgCl2, and 0.2 mM EGTA). After one hour of incubation, 0.9 mg of WGA (Wheat Germ Agglutinin) SPA beads in 50 μL of assay buffer was added to each well. The SPA beads were spun down after an additional one hour incubation. The radioactivity of the bound GTPγS was counted by reading the assay plate using a MicroBeta.
Assay 1 is the CNG cAMP Assay as described in Biological Example 1. Assay 2a and 2b are the Tango™ β-arrestin Recruitment Assay in HEK293 and U2OS cells, respectively, as described in Biological Example 2. Assay 3a is the hS1P1R GTPγS Binding Assay as described in Biological Example 3. Assay 3b is the GTP-Eu Binding Assay as described in Biological Example 3. EC50's were measured unless otherwise noted. […] In the table, “nt” means the Compound was not tested and “no” means the compound was tested but had no measurable activity under the assay conditions employed.

[4] = target: T1, S1P1; assay: Tango β-arrestin Recruitment Assay in U2OS cells (Assay 2b); format: cell-based; design: linker with TEV protease (N1a) cleavage site (C); details: Tango β-arrestin Recruitment Assay, read-out: Assay 2b EC50
Outline: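 U2OS cells expressing S1P1 and reporter, serum-starved 48 h, treated with compound (10-point 3-fold series, top 1 μM, 1% DMSO) overnight at 37 °C; β-lactamase substrate added 2 h at room temperature. F460/F530 ratio normalised to 1 μM S1P (100%) and DMSO; EC50 from concentration-response.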
Target sequence in this assay (P21453 whole entry, the tested form may be a part): as above
Target sequence in this assay (P32121 whole entry partner, the tested form may be a part): as the sequence (P32121 whole entry partner, the tested form may be a part) above

T2 sequence (P21453 whole entry): as the sequence (P21453 whole entry, the tested form may be a part) above

| Compound | EC50 [1] [nM] | EC50 [2] [nM] | EC50 [3] [nM] | EC50 [4] [nM] |
| --- | --- | --- | --- | --- |
| O=C(O)CCc1cc(Cl)c(-c2noc(-c3cn4cc(C(F)(F)F)cc(Br)c4n3)n2)cc1Cl [Entry 68] | ≤ 100 | ≤ 100 | ≤ 100 | ≤ 100 |
| OCC(O)COc1cc(Cl)c(-c2nc(-c3cn4cc(C(F)(F)F)cc(Cl)c4n3)no2)cc1Cl (stereo not drawn) [Entry 50] | ≤ 100 |  | ≤ 100 | ≤ 100 |
| OC[C@H](O)COc1cc(Cl)c(-c2noc(-c3cn4cc(C(F)(F)F)cc(Br)c4n3)n2)cc1Cl [Entry 33] | ≤ 100 |  | ≤ 100 | ≤ 100 |
| O=C(O)CCc1cc(Cl)c(-c2nc(-c3cn4cc(C(F)(F)F)cc(Cl)c4n3)no2)cc1Cl [Example 315, 3-(2,5-dichloro-4-{3-[8-chloro-6-(trifluoromethyl)imidazo[1,2-a]pyridin-2-yl]-1,2,4-oxadiazol-5-yl}phenyl)propanoic acid] | ≤ 100 | ≤ 100 | 100 to 500 | ≤ 100 |
| OCC(O)COc1cc(Cl)c(-c2noc(-c3cn4cc(C(F)(F)F)cc(Br)c4n3)n2)cc1Cl (stereo not drawn) [Example 212, 3-[(4-{5-[8-bromo-6-(trifluoromethyl)imidazo[1,2-a]pyridin-2-yl]-1,2,4-oxadiazol-3-yl}-2,5-dichlorophenyl)oxy]propane-1,2-diol] | ≤ 100 |  | ≤ 100 | ≤ 100 |
| OCC(O)COc1cc(Cl)c(-c2noc(-c3cn4cc(C(F)(F)F)cc(Cl)c4n3)n2)cc1F (stereo not drawn) [Example 198, 3-[(5-chloro-4-{5-[8-chloro-6-(trifluoromethyl)imidazo[1,2-a]pyridin-2-yl]-1,2,4-oxadiazol-3-yl}-2-fluorophenyl)oxy]propane-1,2-diol] | ≤ 100 | ≤ 100 | ≤ 100 |  |
| OCCOc1cc(Cl)c(-c2noc(-c3cn4cc(C(F)(F)F)cc(Br)c4n3)n2)cc1Cl [Example 277, 2-[(4-{5-[8-bromo-6-(trifluoromethyl)imidazo[1,2-a]pyridin-2-yl]-1,2,4-oxadiazol-3-yl}-2,5-dichlorophenyl)oxy]ethanol] | ≤ 100 |  | ≤ 100 | ≤ 100 |
| OCC(O)COc1ccc(-c2noc(-c3cn4cc(C(F)(F)F)cc(Cl)c4n3)n2)c(Cl)c1 (stereo not drawn) [Example 194, 3-[(3-chloro-4-{5-[8-chloro-6-(trifluoromethyl)imidazo[1,2-a]pyridin-2-yl]-1,2,4-oxadiazol-3-yl}phenyl)oxy]propane-1,2-diol] | ≤ 100 | ≤ 100 | 500 to 1000 |  |
| OCCCc1cc(Cl)c(-c2noc(-c3cn4cc(C(F)(F)F)cc(Cl)c4n3)n2)cc1Cl [Example 167, 3-(2,5-dichloro-4-{5-[8-chloro-6-(trifluoromethyl)imidazo[1,2-a]pyridin-2-yl]-1,2,4-oxadiazol-3-yl}phenyl)propan-1-ol] | ≤ 100 |  | ≤ 100 | ≤ 100 |
| CC(C)(O)COc1cc(Cl)c(-c2noc(-c3cn4cc(C(F)(F)F)cc(Br)c4n3)n2)cc1Cl [Example 287, 1-[(4-{5-[8-bromo-6-(trifluoromethyl)imidazo[1,2-a]pyridin-2-yl]-1,2,4-oxadiazol-3-yl}-2,5-dichlorophenyl)oxy]-2-methylpropan-2-ol] | ≤ 100 |  | 100 to 500 | ≤ 100 |
| O=C(O)CCc1c(Cl)cc(-c2noc(-c3cn4cc(C(F)(F)F)cc(Cl)c4n3)n2)cc1Cl [Entry 21] | ≤ 100 | ≤ 100 | 500 to 1000 |  |
| OC[C@H](O)COc1cc(Cl)c(-c2nnc(-c3cn4cc(C(F)(F)F)cc(Cl)c4n3)s2)cc1Cl [Example 252, (25)-3-[(2,5-dichloro-4-{5-[8-chloro-6-(trifluoromethyl)imidazo[1,2-a]pyridin-2-yl]-1,3,4-thiadiazol-2-yl}phenyl)oxy]propane-1,2-diol] | ≤ 100 | ≤ 100 | 500 to 1000 | ≤ 100 |
| Cc1cc(CCC(=O)O)c(Cl)cc1-c1noc(-c2cn3cc(C(F)(F)F)cc(Br)c3n2)n1 [Example 196, 3-(4-{5-[8-bromo-6-(trifluoromethyl)imidazo[1,2-a]pyridin-2-yl]-1,2,4-oxadiazol-3-yl}-2-chloro-5-methylphenyl)propanoic acid] | ≤ 100 | ≤ 100 | ≤ 100 | ≤ 100 |
| O=C(O)CCc1cc(Cl)c(-c2nnc(-c3cn4cc(C(F)(F)F)cc(Br)c4n3)s2)cc1Cl [Example 286, 3-(4-{5-[8-bromo-6-(trifluoromethyl)imidazo[1,2-a]pyridin-2-yl]-1,3,4-thiadiazol-2-yl}-2,5-dichlorophenyl)propanoic acid] | ≤ 100 |  | 1000 to 5000 | ≤ 100 |
| O=C(O)C1CC1c1cc(Cl)c(-c2noc(-c3cn4cc(C(F)(F)F)cc(Br)c4n3)n2)cc1F (stereo not drawn) [Example 89, 2-(4-{5-[8-bromo-6-(trifluoromethyl)imidazo[1,2-a]pyridin-2-yl]-1,2,4-oxadiazol-3-yl}-5-chloro-2-fluorophenyl)cyclopropanecarboxylic acid] | ≤ 100 | ≤ 100 | 500 to 1000 |  |

Next, values leading:

| EC50 [1] [nM] | EC50 [2] [nM] | EC50 [3] [nM] | EC50 [4] [nM] | Compound |
| --- | --- | --- | --- | --- |
| ≤ 100 | ≤ 100 | ≤ 100 | ≤ 100 | OCCOc1cc(Cl)c(-c2noc(-c3cn4cc(C(F)(F)F)cc(Cl)c4n3)n2)cc1Cl [Example 288, 2-[(2,5-dichloro-4-{5-[8-chloro-6-(trifluoromethyl)imidazo[1,2-a]pyridin-2-yl]-1,2,4-oxadiazol-3-yl}phenyl)oxy]ethanol] |
| ≤ 100 |  | ≤ 100 | ≤ 100 | OCC(CO)COc1cc(Cl)c(-c2noc(-c3cn4cc(C(F)(F)F)cc(Cl)c4n3)n2)cc1Cl [Example 278, 2-{[(2,5-dichloro-4-{5-[8-chloro-6-(trifluoromethyl)imidazo[1,2-a]pyridin-2-yl]-1,2,4-oxadiazol-3-yl}phenyl)oxy]methyl}propane-1,3-diol] |
| ≤ 100 | ≤ 100 | ≤ 100 | ≤ 100 | OC[C@@H](O)COc1cc(Cl)c(-c2noc(-c3cn4cc(C(F)(F)F)cc(Cl)c4n3)n2)cc1Cl [Example 289, (2R)-3-[(2,5-dichloro-4-{5-[8-chloro-6-(trifluoromethyl)imidazo[1,2-a]pyridin-2-yl]-1,2,4-oxadiazol-3-yl}phenyl)oxy]propane-1,2-diol] |
| ≤ 100 |  | ≤ 100 | ≤ 100 | OCCCOc1cc(Cl)c(-c2noc(-c3cn4cc(C(F)(F)F)cc(Cl)c4n3)n2)cc1Cl [Example 105, 3-[(2,5-dichloro-4-{5-[8-chloro-6-(trifluoromethyl)imidazo[1,2-a]pyridin-2-yl]-1,2,4-oxadiazol-3-yl}phenyl)oxy]propan-1-ol] |
| ≤ 100 |  | ≤ 100 | ≤ 100 | C[C@@H](O)COc1cc(Cl)c(-c2noc(-c3cn4cc(C(F)(F)F)cc(Cl)c4n3)n2)cc1Cl [Example 295, (2R)-1-[(2,5-dichloro-4-{5-[8-chloro-6-(trifluoromethyl)imidazo[1,2-a]pyridin-2-yl]-1,2,4-oxadiazol-3-yl}phenyl)oxy]propan-2-ol] |
| ≤ 100 |  | ≤ 100 | ≤ 100 | C[C@H](O)COc1cc(Cl)c(-c2noc(-c3cn4cc(C(F)(F)F)cc(Cl)c4n3)n2)cc1Cl [Entry 38] |
| ≤ 100 |  | ≤ 100 | ≤ 100 | OC(CF)COc1cc(Cl)c(-c2noc(-c3cn4cc(C(F)(F)F)cc(Cl)c4n3)n2)cc1Cl (stereo not drawn) [Example 118, 1-[(2,5-dichloro-4-{5-[8-chloro-6-(trifluoromethyl)imidazo[1,2-a]pyridin-2-yl]-1,2,4-oxadiazol-3-yl}phenyl)oxy]-3-fluoropropan-2-ol] |
| ≤ 100 |  | 100 to 500 | ≤ 100 | CC(C)(O)COc1cc(Cl)c(-c2noc(-c3cn4cc(C(F)(F)F)cc(Cl)c4n3)n2)cc1Cl [Example 166, 1-[(2,5-dichloro-4-{5-[8-chloro-6-(trifluoromethyl)imidazo[1,2-a]pyridin-2-yl]-1,2,4-oxadiazol-3-yl}phenyl)oxy]-2-methylpropan-2-ol] |
